In brackets after ≈: the same amount, converted by molar mass. Counter-ions that a name gives are not always drawn.
Columns and labels:
Solubility test in water = type: physicochemical; details: room temperature, stirred 24 hours
Experimental: The compounds of Examples 1 and 3 were chosen as test compounds.
The compound A was chosen as a comparative compound.
The test compounds and the comparative compound were each added to water, and each mixture was stirred at room temperature for 24 hours. The insoluble matter was removed by filtration using a membrane filter (0.2 μm). The filtrate was analyzed by HPLC to obtain solubility.

MOLM-13 cells = experiment: Leukemic cell growth inhibition test (MOLM-13); type: cell-based; details: MOLM-13, 72 hours culture, CellTiter-Glo
Experimental: (§1) A leukemic cell growth inhibition test was performed by using the leukemic cell strains MV4-11 (ATCC Number, CRL-9591) and MOLM-13 (DSMZ Number, ACC554).
(§2) The leukemic cell growth inhibition test was performed by the method described below.
(§3) For the purpose of measuring growth inhibition with a test compound, the total cell count was quantified on the basis of the total cellular ATP concentration using the CellTitet-Glo (PerkinElmer) reagent that enables quantification of ATP concentration based on the luciferin-luciferase reaction. The MOLM-13 or MV4-11 cells were added to the RPMI medium containing penicillin (100 units/mL), streptomycin (100 μg/mL), and 10% FBS at a density of 2×10^5 cells/ml, and 50 μL (10,000 cells) of the mixture was inoculated to each well of a 96-well plate (Corning).
(§4) A serially diluted solution of a test compound or 0.1% DMSO (solvent control) in a volume of 50 μL was added to the cells, and then the cells were cultured for 72 hours under the standard cell proliferation conditions (37° C., 5% CO2) to allow proliferation of the cells. In order to measure the total cell proliferation, equal volume of the CellTitet-Glo reaction mixture was added to each well in accordance with the instructions attached to CellTitet-Glo, and luminescence count was quantified (relative light unit, RLU).
(§5) The RLU signal observed for the DMSO solvent control after 72 hours of culture was defined as a signal indicating 0% inhibition, and the GI50 value for the growth inhibition corresponds to a concentration of a compound that provides 50% inhibition of the total cell proliferation observed in the DMSO solvent control. Each data point was obtained from samples prepared in duplicate. The GI50 values were calculated by the non-linear regression fitting (Fit Model (205)) according to a sigmoid dose-reaction equation using the XLfit software.

[1] = Storage stability test (1), open glass bottle, 2 weeks; type: physicochemical; details: for storage stability / Moisture content / Purity: open glass bottle; for storage stability / change of the purity and moisture content after storage: in words; for change of the purity and moisture content after storage: storage over 2 weeks
Experimental: (§6) The purities are represented in terms of area % measured by high performance liquid chromatography (HPLC). The HPLC measurement was performed by using Prominence (Shimadzu) under the following conditions.
Crystals of the compounds of Examples 1 and 3 were chosen as test substances.
Each test substance (200 mg) was put into a glass bottle of an open state, and stored for 2 weeks under the storage condition 1 (25° C., 75% relative humidity), or the storage condition 2 (40° C., 75% relative humidity). Purity and moisture content of the test substance were measured before the start of the test and after the end of the test.

MV4-11 cells = experiment: Leukemic cell growth inhibition test (MV4-11); type: cell-based; details: MV4-11, 72 hours culture, CellTiter-Glo
Experimental: as §1, §2, §3, §4, §5

[2] = Storage stability test (2), double plastic bag, 4 weeks; type: physicochemical
Experimental: as §6
The crystals of the compound of Example 1 were chosen as test substance.
The test substance (200 mg) was put into double plastic bag, and the opening was tied up. The bag was stored for 4 weeks under the storage condition 1 (25° C., 75% relative humidity), or the storage condition 2 (40° C., 75% relative humidity). Purity and moisture content of the test substance were measured before the start of the test and after the end of the test.

[3] = storage condition 1 (25° C., 75% relative humidity), 2 weeks
[4] = storage condition 2 (40° C., 75% relative humidity), 2 weeks
[5] = storage condition 1 (25° C., 75% relative humidity), 4 weeks
[6] = storage condition 2 (40° C., 75% relative humidity), 4 weeks

CCCNc1nc(Nc2ccc(C#N)cc2)ncc1C#CCCCNC(=O)[C@H](C)N(C)C(=O)/C=C/CN(C)C [Example 3, fumarate of the compound A]
Solubility (Solubility test in water): 890 µg/mL | GI50 (MOLM-13 cells): 1.6 nM | storage stability ([1]; 2 weeks): superior | change of the purity and moisture content after storage [1]: little change | GI50 (MV4-11 cells): 0.6 nM

CCCNc1nc(Nc2ccc(C#N)cc2)ncc1C#CCCCNC(=O)[C@H](C)N(C)C(=O)/C=C/CN(C)C [Example 2, succinate of the compound A]
GI50 (MOLM-13 cells): 1.5 nM | Moisture content ([1]; before start of test): 1.7% | Purity ([1]; before start of test): 99.7% | Moisture content [1, 3]: 3.2% | Purity [1, 3]: 99.6% | Moisture content [1, 4]: 2.1% | Purity [1, 4]: 99.6% | GI50 (MV4-11 cells): 0.6 nM

CCCNc1nc(Nc2ccc(C#N)cc2)ncc1C#CCCCNC(=O)[C@H](C)N(C)C(=O)/C=C/CN(C)C [Compound A, (S,E)-N-(1-((5-(2-((4-cyanophenyl)amino)-4-(propylamino)pyrimidin-5-yl)pent-4-yn-1-yl)amino)-1-oxopropan-2-yl)-4-(dimethylamino)-N-methylbut-2-enamide]
Solubility (Solubility test in water): 20 µg/mL (≈ 37.7 µM)

CCCNc1nc(Nc2ccc(C#N)cc2)ncc1C#CCCCNC(=O)[C@H](C)N(C)C(=O)/C=C/CN(C)C [Example 1, succinate of the compound A]
Solubility (Solubility test in water): 70000 µg/mL | GI50 (MOLM-13 cells; Homo sapiens, MOLM-13, 72 h): 1.47 nM | storage stability ([1]; 2 weeks): superior | Moisture content ([1]; before start of test): 0.5% | Purity ([1]; before start of test): 99.6% | Moisture content [1, 3]: 0.2% | Purity [1, 3]: 99.6% | Moisture content [1, 4]: 0.2% | Purity [1, 4]: 99.6% | change of the purity and moisture content after storage [1]: little change | Moisture content ([2]; before start of test): 0.2% | Purity ([2]; before start of test): 99.4% | Moisture content [2, 5]: 0.2% | Purity [2, 5]: 99.4% | Moisture content [2, 6]: 0.2% | Purity [2, 6]: 99.4% | GI50 (MV4-11 cells; Homo sapiens, MV4-11, 72 h): 0.52 nM

— US9701644B2, “Salt of nitrogen-containing heterocyclic compound or crystal thereof, pharmaceutical composition, and FLT3 inhibitor” (FUJIFILM Corporation, priority 2013, dated 2017)
